{
  "source": "patent US4490291A",
  "about": "“Nonapeptide amides” (Takeda Chemical Industries, Ltd., priority 1973, dated 1984)",
  "note": "Non-standard residues stand in square brackets, D forms with d. Residues, ends and D or L forms follow the SMILES beside them. pGlu = O=C1CC[C@@H](C(=O)O)N1",
  "data": [
    {"system": "Sprague-Dawley rats (4-day cycling female)", "test": "Ovulation-inducing activity in rats, ED50 compared with LH-RH", "type": "in vivo", "conditions": "product of process (III) compared with product of process (I) of Example 5(c)", "experimental": "(§1) Ovulation-inducing activity is determined in Sprague-Dawley rats (4-day cycling female) in which the injection of the compound was made subcutaneously at 14:30 on the day of diestrous, and the ovulated ova in the ampilla of the oviduct were examined on the morning of the next day. The results (ED50) were compared with that (ED50) of LH-RH itself. The assay results on the object compounds are as follows.", "values": [
      {"compound": "CCNC(=O)[C@@H]1CCCN1C(=O)[C@H](CCCNC(=N)N)NC(=O)[C@H](CC(C)C)NC(=O)[C@@H](C)NC(=O)[C@H](Cc1ccccc1)NC(=O)[C@H](CO)NC(=O)[C@H](Cc1c[nH]c2ccccc12)NC(=O)[C@H](Cc1c[nH]cn1)NC(=O)[C@@H]1CCC(=O)N1", "note": "[His Phe Leu ethyl, (Pyr)Glu--His--Trp--Ser--Phe--(D)--Ala--Leu--Arg--Pro--NH--CH2 --CH3] ([pGlu]HWSF[dA]LRP-NHEt)", "ED50 value of ovulation inducing activity": "identical"}
    ]},
    {"system": "Sprague-Dawley rats (4-day cycling female)", "test": "Ovulation-inducing activity in rats, ED50 compared with LH-RH", "type": "in vivo", "conditions": "subcutaneous injection at 14:30 on the day of diestrous; ovulated ova in oviduct examined next morning; natural LH-RH control = 100%", "experimental": "as §1", "values": [
      {"compound": "CCNC(=O)[C@@H]1CCCN1C(=O)[C@H](CCCNC(=N)N)NC(=O)[C@@H](NC(=O)[C@@H](C)NC(=O)[C@H](Cc1ccccc1)NC(=O)[C@H](CO)NC(=O)[C@H](Cc1c[nH]c2ccccc12)NC(=O)[C@H](Cc1c[nH]cn1)NC(=O)[C@@H]1CCC(=O)N1)[C@@H](C)CC", "note": "[His Phe Ile ethyl, (Pyr)Glu--His--Trp--Ser--Phe--(D)--Ala--Ile--Arg--Pro--NHCH2 CH3] ([pGlu]HWSF[dA]IRP-NHEt)", "Relative ovulation-inducing activity (ED50 compared with that of LH-RH itself)": "3,200%"},
      {"compound": "CCNC(=O)[C@@H]1CCCN1C(=O)[C@H](CCCNC(=N)N)NC(=O)[C@H](CC(C)C)NC(=O)[C@@H](C)NC(=O)[C@H](Cc1ccccc1)NC(=O)[C@H](CO)NC(=O)[C@H](Cc1c[nH]c2ccccc12)NC(=O)[C@H](Cc1c[nH]cn1)NC(=O)[C@@H]1CCC(=O)N1", "note": "[His Phe Leu ethyl, (Pyr)Glu--His--Trp--Ser--Phe--(D)--Ala--Leu--Arg--Pro--NH--CH2 --CH3] ([pGlu]HWSF[dA]LRP-NHEt)", "Relative ovulation-inducing activity (ED50 compared with that of LH-RH itself)": "5,810%"},
      {"compound": "CCNC(=O)[C@@H]1CCCN1C(=O)[C@H](CCCNC(=N)N)NC(=O)[C@H](CC(C)C)NC(=O)[C@@H](C)NC(=O)[C@H](Cc1ccc(O)cc1)NC(=O)[C@H](CO)NC(=O)[C@H](Cc1c[nH]c2ccccc12)NC(=O)[C@H](Cc1c[nH]cn1)NC(=O)[C@@H]1CCC(=O)N1", "note": "[His Tyr Leu ethyl, (Pyr)Glu--His--Trp--Ser--Tyr--(D)--Ala--Leu--Arg--Pro--NH--CH2 --CH3]", "Relative ovulation-inducing activity (ED50 compared with that of LH-RH itself)": "6,100%"},
      {"compound": "CCCC[C@H](NC(=O)[C@@H](C)NC(=O)[C@H](Cc1ccc(O)cc1)NC(=O)[C@H](CO)NC(=O)[C@H](Cc1c[nH]c2ccccc12)NC(=O)[C@H](Cc1c[nH]cn1)NC(=O)[C@@H]1CCC(=O)N1)C(=O)N[C@@H](CCCNC(=N)N)C(=O)N1CCC[C@H]1C(=O)NCC", "note": "[His Tyr Nle ethyl, (Pyr)Glu--His--Trp--Ser--Tyr--(D)--Ala--Nle--Arg--Pro--NHCH2 CH3]", "Relative ovulation-inducing activity (ED50 compared with that of LH-RH itself)": "4,800%"},
      {"compound": "CCNC(=O)[C@@H]1CCCN1C(=O)[C@H](CCCNC(=N)N)NC(=O)[C@H](CC(C)C)NC(=O)[C@@H](C)NC(=O)[C@H](Cc1ccc(O)cc1)NC(=O)[C@H](CO)NC(=O)[C@H](Cc1c[nH]c2ccccc12)NC(=O)[C@H](Cc1ccc(O)cc1)NC(=O)[C@@H]1CCC(=O)N1", "note": "[Tyr Tyr Leu ethyl, (Pyr)Glu--Tyr--Trp--Ser--Tyr--(D)--Ala--Leu--Arg--Pro--NHCH2 CH3] ([pGlu]YWSY[dA]LRP-NHEt)", "Relative ovulation-inducing activity (ED50 compared with that of LH-RH itself)": "2,010%"},
      {"compound": "CC(C)C[C@H](NC(=O)CNC(=O)[C@H](Cc1ccc(O)cc1)NC(=O)[C@H](CO)NC(=O)[C@H](Cc1c[nH]c2ccccc12)NC(=O)[C@H](Cc1c[nH]cn1)NC(=O)[C@@H]1CCC(=O)N1)C(=O)N[C@@H](CCCNC(=N)N)C(=O)N1CCC[C@H]1C(=O)NCC(N)=O", "note": "[natural LH--RH, (Pyr)Glu-His-Trp-Ser-Tyr-Gly-Leu-Arg-Pro-Gly-NH2, reference compound]", "Relative ovulation-inducing activity (ED50 compared with that of LH-RH itself)": "100%"},
      {"compound": "(Pyr)Glu--p--NH2 --Phe--Trp--Ser--Tyr--(D)--Ala--Leu--Arg--Pro--NH--CH2 --CH3 [p-NH2 --Phe Tyr Leu ethyl]", "Relative ovulation-inducing activity (ED50 compared with that of LH-RH itself)": "2,150%"}
    ]}
  ]
}
